Earlier results on one molecule are cited in patent US20070275062A1, “Controlled release oxycodone compositions” (priority 1993, published 2007).

The subject of the data set is pain. Particulars: for dose-response slopes: Beaver, et al.

Read-outs that look alike come from different tables or passages of the source.

Take `COc1ccc2c3c1O[C@H]1C(=O)CC[C@@]4(O)[C@@H](C2)N(C)CC[C@]314` [oxycodone]: the “parallelism of the dose-response curves” value (in comparison with other oral and parenteral opioids) is given as “no substantial deviation from parallelism”. For the same molecule, the dose-response slopes entry is, setting by setting: (oral as compared to parenteral oxycodone) “comparable dose-response slopes”; (parenteral oxycodone as compared to parenteral morphine) “comparable dose-response slopes”.
